What was measured:
[1] = Surface tension of carboxylic acid at 2 wt % in water (Wilhelmy plate); assay type: physicochemical; conditions: 2 wt % solution of the carboxylic acid in water; average of 3 samples
Experimental: Surface tension was measured using surface tension measurement, described herein. […] Surface tension of a sample is calculated as the average of the last 5 measured values. […] The average of the last 5 values is used to calculate surface tension of a sample. Surface Tension is measured by ASTM […]-20 Method C-Surface Tension by […] plate. For accurate measurement, the Surface Tension measurement should be allowed to equilibrate over the course of at least 1 minute, or at least 2 minutes, or longer depending on the sample. Properly equilibrated surface tension measurement is evaluated by not seeing a change in the surface tension measurement across multiple data points at the end of the measurement time period. The sample is run for a longer period of time if the surface tension measurement is continuing to change across multiple data points at the end of the measurement time period. […] The average of the last 5 values collected is used to calculate surface tension of a sample.

[2] = tested on: mock community of five underarm species (3 Staphylococcus and 2 Corynebacterium); assay: MIC of various carboxylic acids (Optical Density MIC 95); assay type: cell-based; conditions: pH 5, Tryptic Soy Broth, initial concentration 1000 ppm, ~24 hours at 37° C., OD 600 nm
Excerpt: The following MIC (Minimum Inhibitory Concentration) was done on various carboxylic acids. The MIC is the lowest concentration of active compound at which no growth of the microorganism is observed macroscopically. […] Tryptic Soy Broth is used in the measurements below as a standard diluent for testing MIC. Initial concentration is the highest concentration tested in this experiment. […] The results shown in Table 7 below indicate that carboxylic acids have the ability to inhibit bacteria growth. […] The MIC or minimum inhibitory concentration test determines antimicrobial activity of a material against a specific bacteria. The most commonly employed methods are the tube dilution method and agar dilution method. Test products that are not clear or precipitate the growth media are tested by agar dilution method which is similar to the tube dilution method except dilutions are plated on agar. The tube dilution test is the standard method for determining levels of microbial resistance to an antimicrobial agent. Serial dilutions of the test agent are made in a liquid microbial growth medium which is inoculated with a standardized number of organisms and incubated for a prescribed time. The lowest concentration (highest dilution) of test agent preventing appearance of turbidity (growth) is considered to be the minimal/minimum inhibitory concentration (MIC). At this dilution the test agent is bacteriostatic. […] This measurement is referred to as optical density.

[3] = Surface tension of solvents at 50 wt % in water (Wilhelmy plate); assay type: physicochemical; conditions: solvent at 50 wt % in water; average of 3 samples
Excerpt: In addition, carboxylic acids may be used in deodorant compositions that are desired to be clear. For the composition to appear clear, the refractive index of the polar and nonpolar phases may not vary too much. For example, for a clear appearance of a polar in nonpolar emulsion, a significant amount of material with high refractive index, water soluble solvents or emollients (for example glycols, polyethers, diols, glycerin, or mixtures thereof), can be added to the polar phase to match the refractive index of water (1.333) to silicone (1.40). […] Surface tension is measured for mixtures of solvents at 50 wt % in water. Surface tension was measured using the surface tension measurement, as described in the Test Method section herein. Measurement time period was 1 minute with 30 values measured over the measurement time period. Surface tension of a sample is calculated as the average of the last 5 measured values. Each reported value is an average of 3 samples measured.
Surface Tension is measured by ASTM D1331-20 Method C-Surface Tension by Willhelmy plate. […] Properly equilibrated surface tension measurement is evaluated by not seeing a change in the surface tension measurement across multiple data points at the end of the measurement time period. […] A minimum of 30 measured values are collected during the measurement time period. […]

| Surface Tension when measured at 2 wt % in Water [1] | Surface Tension when measured at 50 wt % in Water [3] | SMILES | MIC [2] |
| --- | --- | --- | --- |
| 71.1 mN/m |  | O=C(O)CO [Glycolic Acid] |  |
|  | 68.6 mN/m | OCC(O)CO [Glycerin] |  |
|  | 44.6 mN/m | CC(O)CO (centres unmarked) [Propylene Glycol (PG), Propylene Glycol] |  |
| 63.7 mN/m |  | O=C(O)C(O)c1ccccc1 (centres unmarked) [Mandelic Acid] | 1000 µg/mL |
| 72.4 mN/m |  | O=C1O[C@H]([C@@H](O)CO)C(O)=C1O [Ascorbic Acid] |  |
| 69.8 mN/m |  | O=C(O)CCC(=O)O [Succinic Acid] | 1000 µg/mL |
| 71.3 mN/m |  | O=C(O)CC(O)(CC(=O)O)C(=O)O [Citric Acid] |  |

The remaining lines, values behind:

| SMILES | Surface Tension when measured at 2 wt % in Water [1] | Surface Tension when measured at 50 wt % in Water [3] | MIC [2] |
| --- | --- | --- | --- |
| O=C(O)CC(O)C(=O)O (centres unmarked) [Malic Acid] | 71.8 mN/m |  | 500 µg/mL |
| O=C(O)/C=C\C(=O)O [Maleic Acid] |  |  | 1000 µg/mL |
| CC(O)C(=O)O (centres unmarked) [Lactic Acid] | 63.7 mN/m |  | 1000 µg/mL |
| O=C(O)c1ccccc1O [Salicylic Acid] |  |  | 125 µg/mL |
| O=C(O)/C=C/C(=O)O [Fumaric Acid] |  |  | 250 µg/mL |
| O=C(O)C(O)C(O)C(=O)O (centres unmarked) [Tartaric Acid] |  |  | 250 µg/mL |

Source: US20240415753A1, “DEODORANT COMPOSITIONS COMPRISING CARBOXYLIC ACIDS” (The Procter & Gamble Company, priority 2023, published 2024)
